Results from patent US20230398130A1, “METHODS AND COMPOSITIONS FOR DIFFERENTIATING STEM CELLS” (Massachusetts Institute of Technology, priority 2020, published 2023).
Counter-ions that a name gives are not always drawn.

Test system: ISC-enriched organoids
Assay: Primary screen, 384-well 2.5-D organoid differentiation (ENR+CD, 6 days, Target Selective Inhibitor Library, vs whole-plate median): ATP (CellTiter-Glo 3D, CTG)
Settings: for Z.CTG: standard z score of FC; for Z.CTG (standard z score): primary screen

SMILES	Z.CTG (Dose 0.08 uM)	Z.CTG (Dose 0.40 uM)	Z.CTG (Dose 2.00 uM)	Z.CTG (Dose 10.00 uM)	Z.CTG (standard z score) (Dose 0.08 uM)	Z.CTG (standard z score) (Dose 0.40 uM)	Z.CTG (standard z score) (Dose 2.00 uM)	Z.CTG (standard z score) (Dose 10.00 uM)
Cc1cc(C(C)(C)C)c(O)c(C)c1CC1=NCCN1 [Oxymetazoline HCl]	0.340	0.281	−0.016	0.282				
O=C(O)/C=C/c1ccc(Cn2ccnc2)cc1 [Ozagrel HCl]	0.118	0.318	0.437	0.547				
O=C(O)/C=C/c1ccc(Cn2ccnc2)cc1 [Ozagrel]	0.131	0.535	−0.149	0.271				
O=C(NOC[C@H](O)CO)c1ccc(F)c(F)c1Nc1ccc(I)cc1F [PD0325901]	−1.200	−2.760	−2.072	−2.301				
CC(C)CC(=O)Nc1[nH]nc2c1CN(C(=O)C1CCN(C)CC1)C2(C)C [PHA-793887]	0.271	0.314	−0.344	−2.045				
Oc1cc(O)cc(/C=C/c2ccc(O)c(O)c2)c1 [Piceatannol]	0.554	−0.216	0.177	−0.170				
COc1ccc(-c2nc3ccc(C4=NNC(=O)CC4C)cc3[nH]2)cc1 (stereo not shown) [Pimobendan]	−0.053	0.460	0.492	0.333				
Nc1cccc2c1C(=O)N(C1CCC(=O)NC1=O)C2=O (stereo not shown) [Pomalidomide]	0.150	0.536	−0.517	−0.729				
C#CCC(Cc1cnc2nc(N)nc(N)c2n1)c1ccc(C(=O)N[C@@H](CCC(=O)O)C(=O)O)cc1 (stereo partly shown) [Pralatrexate]					−1.551	−2.036	−1.626	−2.201
CCCN[C@H]1CCc2nc(N)sc2C1 [Pramipexole]					0.261	0.436	0.062	0.551
CC(C)NCC(O)COc1cccc2ccccc12 (stereo not shown) [Propranolol HCl]					0.158	0.129	0.279	0.400
CCc1nc(N)nc(N)c1-c1ccc(Cl)cc1 [Pyrimethamine]					0.016	−0.618	−0.994	−1.480
CCC(=O)NCC[C@@H]1CCc2ccc3c(c21)CCO3 [Ramelteon]					−0.066	0.369	−0.752	0.358
CNC(=C[N+](=O)[O-])NCCSCc1ccc(CN(C)C)o1 [Ranitidine]					−0.121	0.370	−0.165	−0.625
C#CCN[C@@H]1CCc2ccccc21 [Rasagiline Mesylate]					0.367	0.246	0.099	0.249
O=C(NC(Cc1cc(=O)[nH]c2ccccc12)C(=O)O)c1ccc(Cl)cc1 (stereo not shown) [Rebamipide]					−0.612	−1.217	−0.484	−0.672
Cc1c(C(=O)NN2CCCCC2)nn(-c2ccc(Cl)cc2Cl)c1-c1ccc(Cl)cc1 [Rimonabant]					0.611	0.492	0.561	0.152
O=C(NC[C@H]1CN(c2ccc(N3CCOCC3=O)cc2)C(=O)O1)c1ccc(Cl)s1 [Rivaroxaban]					0.050	0.466	0.123	0.104
CN(C)CCc1c[nH]c2ccc(Cn3cncn3)cc12 [Rizatriptan Benzoate]					0.512	0.260	0.302	−0.129
COc1cc2c(cc1OC)[C@@H]1Cc3ccc(OC)c(OC)c3CN1CC2 [Rotundine]					0.857	0.818	0.454	0.543
CC(=O)OCC(=O)NCCCOc1cccc(CN2CCCCC2)c1 [Roxatidine Acetate HCl]					−0.095	0.050	−0.245	−0.564
CC(C)N(CCCNC(=O)Nc1ccc(C(C)(C)C)cc1)C[C@H]1O[C@@H](n2cc(Br)c3c(N)ncnc32)[C@H](O)[C@@H]1O [SGC0946]					0.124	−0.290	−0.197	−0.340
